# Experimental data taken from US12019067B2, “Interferometry based systems to detect small mass changes of an object in a solution” (NantBio, Inc., priority 2020, dated 2024).
# What was measured:
# Format in all cases: cell-based, human
# H929 cells = assay: Live cell interferometry (LCI) growth of H929 cells with or without bortezomib; details: for growth trajectory compared to the control: 96 well plate
# Protocol: A typical assay may include, for a single plate, forming groups of seven wells. A range of concentrations may be used, with each concentration (e.g., a DMSO control, varying therapeutic concentrations of 0.039 nM, 0.156 nM, 0.625 nM, 2.5 nM, 10 nM, and 40 nM) applied to a group of wells. In some embodiments, cells are plated, therapeutic(s) are added, and images are collected every 10-15 minutes for the designated period of time.
# For development of screening techniques, H929 cells may be used. H929 cells, which may be grown in serum free conditions, have the morphologic, ultrastructural, biochemical, immunologic, and cytochemical features of plasma cells (see, Gazdar et al., Blood (1986) 67(6): 1542-9). H929 cells, derived from a human patient with multiple myeloma, are commonly used for multiple myeloma testing and are sensitive to a variety of chemotherapeutic drugs.
# In this experiment, about 1681 control cells and about 1272 bortezomib treated cells were screened.
# A small but statistically significant difference in growth rate was detected at about 4.5 hrs. […] As shown in this graph, the growth trajectories of the control and bortezomib treated cells begin to diverge between 4-5 hours. […] Here, a vertical line indicates a statistically significant point of divergence using LCI techniques between 4-5 hours.
# In this experiment, about 1889 control cells and about 1248 bortezomib treated cells were screened. Imaging was initiated after drug addition, every 12 min for 7 hrs. In this study, the normalized growth rate [1/h] of DMSO control cells was 0.0152, while the normalized growth rate [1/h] of 10 nM bortezomib treated cells was 0.0139, for a difference of −8.6% between these two growth rates. As shown by the graph, after about 5 hours, the normalized growth rate of control and 10 nM bortezomib treated cells diverged. Accordingly, under these conditions, efficacy of a drug was determined in about 5 hours.
# For this graph, the same plate (as used in FIG. 21C) was imaged (for a total of 24 hours) after drug addition. An image was taken every 12 minutes for about 15 hours. About 1867 control cells and about 1426 bortezomib treated cells were screened.
# FIGS. 22A-22D show another study using bortezomib. […] A clear response to the therapeutic was observed, with the drug EC50 expected to be between 2.5-10 nM.
# MM.1S cells = assay: LCI growth of MM.1S cells treated with bortezomib or dexamethasone
# Text: As an alternative, MM.1 cells may be used as model cell line for assay development, wherein MM.1S refers to a strain that is sensitive to a drug such as dexamethasone and MM.1R refers to a strain that is resistant to a drug such as dexamethasone. For these types of experiments, a 12 well plate may be seeded at about 1.5××10^5 cells per plate. The desired concentration of therapeutic(s) may be added to each of the six wells. Control wells may also be established using the same dilutions with DMSO as the test well containing drug. LCI imaging may begin immediately after drug addition, with images being taken every 10-15 minutes.
# About 2.5××10^5 cells per well were placed on a poly-D-lysine 12 well plate, and incubated for one hour. About 200 nM dexamethasone, 10 nM bortezomib, or DMSO (in duplicate wells) were added to each well, and images were collected every 15 mins for up to 15 hours.
# MM.1R and MM.1S cells = assay: Multiple myeloma combinatorial screening of therapeutics by LCI, 96 well plate; details: for overall result: response / overall result: titration effect: 3 concentrations per drug, quadruplicate, 96 well plate; for ranking among screened drugs: bortezomib 20 nM and carfilzomib at 50 nM
# Protocol: In this example, 6 therapeutics at 3 different concentrations, were added in quadruplicate to a 96 well plate. Thus, there were 19 different conditions: bortezomib (20, 5, 1.25 nM); carlifomib (50, 10, 2 nM); dexamethasone (300, 100, 33.3 nM); lenalidomide (50, 10, 2 nM); panobinostat (50, 10, 2 nM); pomalidomide (50, 10, 2 nM); and DMSO (300 nM) as a negative control. In clinical practice, the actual drugs/combinations may be provided by the clinician.
# In this study, a large number of cells (12,000 total cells) were screened to identify optimal drugs and concentrations. This assay, while performed on MM.1R and MM.1S cells may be performed on any suitable cell type (e.g., patient derived cancer cells from multiple myeloma, breast cancer, lung cancer, etc.). For multiple myeloma cells, a protocol for CD138+ cell enrichment from patient bone marrow is provided in the art.
# FIGS. 25B, 25C, and 25D show the results of this assay, in graphical, dot box, and table format respectively, in which multiple “best treatments” were identified using this system.
smiles,measurement,setting,value
CC(C)C[C@H](NC(=O)[C@H](Cc1ccccc1)NC(=O)c1cnccn1)B(O)O [bortezomib],difference between growth rates of treated and DMSO control cells,H929 cells; 2 nM bortezomib,−6.55%
same,normalized growth rate,"H929 cells; 2 nM bortezomib, imaged about 15 hours",0.0172 h⁻¹
same,difference between growth rates of treated and DMSO control cells,"H929 cells; 10 nM bortezomib, first 7 hrs",−8.6%
same,normalized growth rate,"H929 cells; 10 nM bortezomib, imaged every 12 min for 7 hrs after drug addition",0.0139 h⁻¹
same,difference between growth rates of treated and DMSO control cells,"H929 cells; 10 nM bortezomib, later imaging about 15 hours (total 24 hours)",−119.6%
same,normalized growth rate,"H929 cells; 10 nM bortezomib, same plate imaged further about 15 hours (total of 24 hours after drug addition)",0.000443 h⁻¹
same,growth trajectory compared to the control,H929 cells; 2.5 nM,did not show a difference in growth trajectory
same,growth trajectory compared to the control,H929 cells; 10 nM,significant decline in growth
same,EC50,"H929 cells; Homo sapiens, NCI-H929, 96 well plate, 0-40 nM titration, expected value",2.5 to 10 nM
same,EC50,"MM.1S cells; Homo sapiens, MM1.S cells, bortezomib titration",2.5 to 10 nM
same,sensitivity of cells to drug,"MM.1S cells; MM.1S, 10 nM bortezomib",sensitive
same,overall result: response,MM.1R and MM.1S cells,good/great response
same,overall result: titration effect,MM.1R and MM.1S cells,good titration effect
same,ranking among screened drugs,MM.1R and MM.1S cells,most effective drugs
CC(C)C[C@H](NC(=O)[C@H](CCc1ccccc1)NC(=O)CN1CCOCC1)C(=O)N[C@@H](Cc1ccccc1)C(=O)N[C@@H](CC(C)C)C(=O)[C@@]1(C)CO1 [carfilzomib],overall result: response,MM.1R and MM.1S cells,good/great response
same,overall result: titration effect,MM.1R and MM.1S cells,good titration effect
same,ranking among screened drugs,MM.1R and MM.1S cells,most effective drugs
C[C@@H]1C[C@H]2[C@@H]3CCC4=CC(=O)C=C[C@]4(C)[C@@]3(F)[C@@H](O)C[C@]2(C)[C@@]1(O)C(=O)CO [dexamethasone],reduction of MM.1S growth,"MM.1S cells; about 200 nM dexamethasone, imaged up to 15 hours",80.5%
Nc1cccc2c1CN(C1CCC(=O)NC1=O)C2=O (stereo not shown) [lenalidomide],overall result: response,MM.1R and MM.1S cells,no response
same,overall result: titration effect,MM.1R and MM.1S cells,no titration effect
Nc1cccc2c1C(=O)N(C1CCC(=O)NC1=O)C2=O (stereo not shown) [pomalidomide],overall result: response,MM.1R and MM.1S cells,some response
same,overall result: titration effect,MM.1R and MM.1S cells,good titration effect
